Values joined by “and” are separate entries in the source; they are usually repeats but may differ in a detail not shown here. Identical values can stand only once.
Tests used:
beta-amyloid 1-42 [1] = molecular target: T1, beta-amyloid 1-42 (Homo sapiens, UniProt P05067); assay: Seprion assay of brain extracts of treated hAPP(751) mice, beta-amyloid 1-42; format: in vivo; details: SDS extracts of brain; daily oral from 2 to 6 months of age; fluphenazine 0.5 mg/Kg, trimipramine 25 mg/Kg; one value per animal
T1 construct: ELISA and Seprion assay for amyloid — 1-40 and 1-42 on the SDS extracts; from tissue; host or cells: brain extracts of hAPP(751) transgenic mice

beta-amyloid 1-40 [2] = molecular target: T2, beta-amyloid 1-40 (Homo sapiens, UniProt P05067); assay: Seprion assay of brain extracts of treated hAPP(751) mice, beta-amyloid 1-40; format: in vivo; details: SDS extracts of brain; daily oral from 2 to 6 months of age; fluphenazine 0.5 mg/Kg, trimipramine 25 mg/Kg; one value per animal
T2 construct: These mice develop increased amounts of beta-amyloid 1-40 and 1-42 in the brain; from tissue; host or cells: brain extracts of hAPP(751) transgenic mice

beta-amyloid 1-40 [3] = molecular target: T2, beta-amyloid 1-40; assay: ELISA of brain extracts of treated hAPP(751) mice, beta-amyloid 1-40; format: in vivo; details: daily oral from 2 to 6 months of age, fluphenazine 0.5 mg/Kg, trimipramine 25 mg/Kg, one value per animal
amyloid plaques = assay: Immunohistochemistry of brains of treated hAPP(751) mice for amyloid plaques; format: in vivo; details: immunohistochemistry of brain; daily oral from 2 to 6 months of age; fluphenazine 0.5 mg/Kg, trimipramine 25 mg/Kg
beta-amyloid 1-42 [4] = molecular target: T1, beta-amyloid 1-42; assay: ELISA of brain extracts of treated hAPP(751) mice, beta-amyloid 1-42; format: in vivo; details: daily oral from 2 to 6 months of age, fluphenazine 0.5 mg/Kg, trimipramine 25 mg/Kg, one value per animal
[5] = molecular target: Synthetic beta-amyloid peptide 1-40 (Homo sapiens, UniProt P05067); assay: Seprion assay screen for compounds that affect amyloid aggregation; format: biochemical; details: test compounds at 1 mM; for Relative aggregation compared to 'no compound' aggregation control: peptide 2.8 μg/ml, 30 min at 37° C., Seprion assay signal
[6] = molecular target: Synthetic beta-amyloid peptide (Homo sapiens, UniProt P05067); assay: PAGE and silver staining of aggregation reactions incubated with compounds; format: biochemical; details: peptide incubated in the presence of compound, FIG. 2
[7] = Therapy of a patient with Gerstman-Straussler-Scheinker (GSS) syndrome; details: intraventricular, before the combination therapy

T1 sequence (P05067 672-713): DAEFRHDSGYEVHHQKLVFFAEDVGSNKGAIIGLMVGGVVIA
T2 sequence (P05067 672-711): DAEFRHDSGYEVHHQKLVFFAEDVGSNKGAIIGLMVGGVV
Synthetic beta-amyloid peptide 1-40, sequence (P05067 672-711): as above
Synthetic beta-amyloid peptide, sequence (P05067 672-711): as above

OCCN1CCN(CCCN2c3ccccc3Sc3ccc(C(F)(F)F)cc32)CC1 [Fluphenazine, fluphenazine]
Seprion assay beta-amyloid 1-42 OD420 nm (beta-amyloid 1-42 [1]): 0.93 OD420 nm and 0.68 OD420 nm
Seprion assay beta-amyloid 1-40 OD420 nm (beta-amyloid 1-40 [2]): 0.18 OD420 nm and 0.09 OD420 nm
ELISA beta-amyloid 1-40 ng (beta-amyloid 1-40 [3]; SDS extracts of brain): 88 ng and 51 ng
ELISA beta-amyloid 1-40 ng (beta-amyloid 1-40 [3]; formic acid extracts of brain): 116 ng and 119 ng
plaque reduction (amyloid plaques): 23%
ELISA beta-amyloid 1-42 ng (beta-amyloid 1-42 [4]; SDS extracts of brain): 295 ng and 165 ng
ELISA beta-amyloid 1-42 ng (beta-amyloid 1-42 [4]; formic acid extracts of brain): 143 ng and 197 ng

c1ccc2c(c1)Nc1ccccc1S2 [Phenothiazine]
Relative aggregation compared to 'no compound' aggregation control [5]: 80%

protryptyline [Protriptyline]
Relative aggregation compared to 'no compound' aggregation control [5]: 184%

CCN(CC)CCCC(C)Nc1c2ccc(Cl)cc2nc2ccc(OC)cc12 (centres unmarked) [quinacrine]
effect on amyloid aggregation (in words) ([5]; Seprion assay screen): not effective

CC(CN(C)C)CN1c2ccccc2CCc2ccccc21 (centres unmarked) [Trimipramine, trimipramine]
Relative aggregation compared to 'no compound' aggregation control [5]: 259%
Seprion assay beta-amyloid 1-42 OD420 nm (beta-amyloid 1-42 [1]): 0.26 OD420 nm and 2.26 OD420 nm and 0.98 OD420 nm and 0.64 OD420 nm
Seprion assay beta-amyloid 1-40 OD420 nm (beta-amyloid 1-40 [2]): 0.11 OD420 nm and 0.58 OD420 nm and 0.14 OD420 nm and 0.10 OD420 nm
ELISA beta-amyloid 1-40 ng (beta-amyloid 1-40 [3]; SDS extracts of brain): 169 ng and 101 ng and 195 ng and 89 ng
ELISA beta-amyloid 1-40 ng (beta-amyloid 1-40 [3]; formic acid extracts of brain): 127 ng and 111 ng and 182 ng and 115 ng
plaque reduction (amyloid plaques): 15%
inhibition of amyloid aggregation by PAGE and silver staining [6]: inhibit the aggregation of the amyloid
ELISA beta-amyloid 1-42 ng (beta-amyloid 1-42 [4]; SDS extracts of brain): 346 ng and 369 ng and 529 ng and 350 ng
ELISA beta-amyloid 1-42 ng (beta-amyloid 1-42 [4]; formic acid extracts of brain): 174 ng and 185 ng and 311 ng and 213 ng

pentosan polysulphate
clinical effect [7]: had no effect

OCCN1CCN(CCC=C2c3ccccc3Sc3ccc(C(F)(F)F)cc32)CC1 [Flupenthixol, cis-(Z)-flupenthixol]
Relative aggregation compared to 'no compound' aggregation control [5]: 48.2%

CN1CCN(CC/C=C2/c3ccccc3Sc3ccc(S(=O)(=O)N(C)C)cc32)CC1 [Cis-thiothixene, cis-thiothixene]
Relative aggregation compared to 'no compound' aggregation control [5]: 42%

CN(C)CCCN1c2ccccc2Sc2ccccc21.Cl [Promazine, promazine]
Relative aggregation compared to 'no compound' aggregation control [5]: 44.5%
inhibition of amyloid aggregation by PAGE and silver staining [6]: inhibit the aggregation of the amyloid

Clc1ccc2c(c1)C(N1CCNCC1)=Nc1ccccc1O2 [Amoxapine, amoxapine]
Relative aggregation compared to 'no compound' aggregation control [5]: 119%

nortriptyline
Relative aggregation compared to 'no compound' aggregation control [5]: 189%

— patent publication US8383617B2, “Treatment of protein aggregation diseases” (priority 2007, dated 2013)
